According to PubChem BioAssay AID1963981 (Molecular Pharmacology Branch, DTP, NCI, 2024):

Tested on: 354836-022-R-J1-PDC multicell spheroid viability
Assay: Anticancer human tumor 354836-022-R-J1-PDC patient-derived head and neck squamous cell carcinoma cell line growth inhibition [PI3K]
Settings: for IC50: curve of first compound; for viability, T/C: stronger effect = lower value
Description: Combinatorial screen of targeted agents with the PI3K inhibitors inavolisib, alpelisib, duvelisib, and copanlisib in multi-cell type tumor spheroids
A high-throughput screen of multi-cell type tumor spheroids was designed to identify active combinations of targeted small molecules and PI3K pathway inhibitors. Complex spheroids include a stromal component modeled by human endothelial cells (HUVEC) and fibroblasts modeled by human mesenchymal stem cells (MSCs). The concentration ranges selected for each drug and investigational agent were based upon clinically achievable concentrations if the clinical Cmax of the agent was known.
Compounds. The drugs and investigational agents: inavolisib (NSC800729), alpelisib (NSC765974), duvelisib (NSC772469), copanlisib (NSC816437), ipatasertib (NSC767898), afuresertib (NSC778305), talazoparib (NSC767125), sapanisertib (NSC764658), selumetinib (NSC741078), tovorafenib (DAY101, NSC766906), vemurafenib (NSC761431), ravoxertinib (NSC781343), sotorasib (NSC818433), MRTX1133 (NSC 836407), abemaciclib (NSC 768073), palbociclib (NSC758247), venetoclax (NSC 766270), SY5609 (NSC837396), enzalutamide (NSC755605), and darolutamide (NSC825331), were obtained from the National Cancer Institute (NCI) Developmental Therapeutics Program Chemical Repository. The FDA-approved anticancer drug set is available from the NCI Developmental Therapeutics Program. […] The stock solutions were prepared in dimethyl sulfoxide (DMSO, Sigma-Aldrich, St. Louis, MO, cat. D2650) at 800-fold the tested concentration and stored at -70 degrees C prior to their use. All drugs and investigational agents were tested over a range starting from a high concentration at or near the clinical Cmax and decreasing in half-log increments. If the clinical Cmax for an agent had not been determined, the highest concentration tested was 10 microM.
Cell Culture. All cells were maintained in an incubator at 37 degrees C and 5% CO2 with 95% humidity. The PDC lines were cultured according to standard operating procedures established by the NCI PDMR (https://pdmr.cancer.gov/sops/default.htm). All PDCs were thawed and cultured in Matrigel-coated flasks prepared with a working solution of 1X Ham's F-12 nutrient mix, without supplementation (Invitrogen, Waltham, MA, cat. 11765054), 100 U/mL penicillin-streptomycin (Invitrogen, cat. 15140122), and 2.5% Matrigel (Corning Inc., Corning, NY, cat. 354248) for the first three passages. The 354836-022-R-J1-PDC, 475296-252-R-J1-PDC, and 997726-040-R-J2-PDC lines were cultured in 6A media, which includes advanced DMEM/F-12 (Thermo Fisher Scientific, cat. 12634028), 10 mM HEPES (Thermo Fisher Scientific, cat. 15630080), 1X GlutaMAX supplement (Thermo Fisher Scientific, cat. 35050061), 0.1 mg/mL primocin (InvivoGen, San Diego, CA, cat. ant-pm-2), 10% defined fetal bovine serum, heat inactivated (HyClone Laboratories Inc., Logan, UT, cat. SH30070.03HI), 50% L-WRN conditioned media (ATCC, cat. CRL-3276), 1.25 mM N-Acetyl-L-cysteine (Sigma-Aldrich, cat. A9165), 10 mM nicotinamide (Sigma-Aldrich, cat. N0636), 1X B-27 supplement (Thermo Fisher Scientific, cat. 17504044), 1X N-2 supplement (Thermo Fisher Scientific, cat. 17502048), and 10 microM Y-27632 dihydrochloride (Tocris Bioscience, Bristol, United Kingdom, cat. 1254). The 624824-186-R-J2-PDC line was cultured in 6C/Colon 1B media, which includes all 6A media components plus 50 ng/mL human EGF recombinant protein (Thermo Fisher Scientific, cat. PHG0311). […]

[1] = second compound 0.00316 µM, first compound 0.0316 µM
[2] = second compound 0.00316 µM, first compound 0.1 µM
[3] = second compound 0.00316 µM, first compound 0.316 µM
[4] = second compound 0.00316 µM, first compound 1 µM
[5] = second compound 0.00316 µM, first compound 3.16 µM
[6] = second compound 0.00316 µM, first compound 10 µM
[7] = second compound 0.01 µM, first compound 0.0316 µM
[8] = second compound 0.01 µM, first compound 0.1 µM
[9] = second compound 0.01 µM, first compound 0.316 µM
[10] = second compound 0.01 µM, first compound 1 µM
[11] = second compound 0.01 µM, first compound 3.16 µM
[12] = second compound 0.01 µM, first compound 10 µM
[13] = second compound 0.0316 µM, first compound 0.0316 µM
[14] = second compound 0.0316 µM, first compound 0.1 µM
[15] = second compound 0.0316 µM, first compound 0.316 µM
[16] = second compound 0.0316 µM, first compound 1 µM
[17] = second compound 0.0316 µM, first compound 3.16 µM
[18] = second compound 0.0316 µM, first compound 10 µM
[19] = second compound 0.1 µM, first compound 0.0316 µM
[20] = second compound 0.1 µM, first compound 0.1 µM
[21] = second compound 0.1 µM, first compound 0.316 µM
[22] = second compound 0.1 µM, first compound 1 µM
[23] = second compound 0.1 µM, first compound 3.16 µM
[24] = second compound 0.1 µM, first compound 10 µM
[25] = second compound 0.316 µM, first compound 0.0316 µM
[26] = second compound 0.316 µM, first compound 0.1 µM
[27] = second compound 0.316 µM, first compound 0.316 µM
[28] = second compound 0.316 µM, first compound 1 µM
[29] = second compound 0.316 µM, first compound 3.16 µM
[30] = second compound 0.316 µM, first compound 10 µM
[31] = second compound 1 µM, first compound 0.0316 µM
[32] = second compound 1 µM, first compound 0.1 µM
[33] = second compound 1 µM, first compound 0.316 µM
[34] = second compound 1 µM, first compound 1 µM
[35] = second compound 1 µM, first compound 3.16 µM
[36] = second compound 1 µM, first compound 10 µM
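Also: spheroids exposed to agents for seven days before the viability read.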

## C#Cc1c(F)ccc2cc(O)cc(-c3ncc4c(N5CC6CCC(C5)N6)nc(OCC56CCCN5CC(F)C6)nc4c3F)c12 (stereo not drawn) + CC(Nc1ccc2c(c1)OCCn1cc(N3C(=O)OCC3C(F)F)nc1-2)C(N)=O
Second compound 0.00316 µM
  IC50: > 10 µM
Second compound 0.01 µM
  IC50: > 10 µM
Second compound 0.0316 µM
  IC50: > 10 µM
Second compound 0.1 µM
  IC50: > 10 µM
Second compound 0.316 µM
  IC50: > 10 µM
Second compound 1 µM
  IC50: > 10 µM
[1]
  viability, T/C: 106%
[2]
  viability, T/C: 78%
[3]
  viability, T/C: 96.6%
[4]
  viability, T/C: 92.7%
[5]
  viability, T/C: 97.4%
[6]
  viability, T/C: 99.1%
[7]
  viability, T/C: 97.5%
[8]
  viability, T/C: 98.9%
[9]
  viability, T/C: 93.4%
[10]
  viability, T/C: 96.4%
[11]
  viability, T/C: 103%
[12]
  viability, T/C: 99%
[13]
  viability, T/C: 87.3%
[14]
  viability, T/C: 108%
[15]
  viability, T/C: 80.9%
[16]
  viability, T/C: 95.5%
[17]
  viability, T/C: 97.8%
[18]
  viability, T/C: 92.9%
[19]
  viability, T/C: 78.7%
[20]
  viability, T/C: 103%
[21]
  viability, T/C: 78.1%
[22]
  viability, T/C: 92.4%
[23]
  viability, T/C: 88.8%
[24]
  viability, T/C: 71.8%
[25]
  viability, T/C: 70.8%
[26]
  viability, T/C: 89.1%
[27]
  viability, T/C: 79.5%
[28]
  viability, T/C: 79.7%
[29]
  viability, T/C: 83.5%
[30]
  viability, T/C: 61.9%
[31]
  viability, T/C: 70.2%
[32]
  viability, T/C: 56.8%
[33]
  viability, T/C: 55.9%
[34]
  viability, T/C: 59.7%
[35]
  viability, T/C: 57.2%
[36]
  viability, T/C: 54%

## C=CC(=O)N1CCN(c2nc(=O)n(-c3c(C)ccnc3C(C)C)c3nc(-c4c(O)cccc4F)c(F)cc23)C(C)C1 (stereo not drawn) + CC(Nc1ccc2c(c1)OCCn1cc(N3C(=O)OCC3C(F)F)nc1-2)C(N)=O
Second compound 0.00316 µM
  IC50: > 10 µM
Second compound 0.01 µM
  IC50: > 10 µM
Second compound 0.0316 µM
  IC50: > 10 µM
Second compound 0.1 µM
  IC50: > 10 µM
Second compound 0.316 µM
  IC50: > 10 µM
Second compound 1 µM
  IC50: > 10 µM
[1]
  viability, T/C: 100%
[2]
  viability, T/C: 81.7%
[3]
  viability, T/C: 98.7%
[4]
  viability, T/C: 94.5%
[5]
  viability, T/C: 106%
[6]
  viability, T/C: 113%
[7]
  viability, T/C: 101%
[8]
  viability, T/C: 91.8%
[9]
  viability, T/C: 93.1%
[10]
  viability, T/C: 95.3%
[11]
  viability, T/C: 103%
[12]
  viability, T/C: 91%
[13]
  viability, T/C: 95.7%
[14]
  viability, T/C: 112%
[15]
  viability, T/C: 86.9%
[16]
  viability, T/C: 111%
[17]
  viability, T/C: 115%
[18]
  viability, T/C: 92.2%
[19]
  viability, T/C: 77.9%
[20]
  viability, T/C: 94.3%
[21]
  viability, T/C: 95.2%
[22]
  viability, T/C: 124%
[23]
  viability, T/C: 88.5%
[24]
  viability, T/C: 89.7%
[25]
  viability, T/C: 68.2%
[26]
  viability, T/C: 75.9%
[27]
  viability, T/C: 81.5%
[28]
  viability, T/C: 68.1%
[29]
  viability, T/C: 87.7%
[30]
  viability, T/C: 70.6%
[31]
  viability, T/C: 63.9%
[32]
  viability, T/C: 63.2%
[33]
  viability, T/C: 65.1%
[34]
  viability, T/C: 74%
[35]
  viability, T/C: 68.3%
[36]
  viability, T/C: 55.6%

## CC(Cn1ccc(-c2ccc(C#N)c(Cl)c2)n1)NC(=O)c1cc(C(C)O)[nH]n1 (stereo not drawn) + CC(Nc1ccc2c(c1)OCCn1cc(N3C(=O)OCC3C(F)F)nc1-2)C(N)=O
Second compound 0.00316 µM
  IC50: > 10 µM
Second compound 0.01 µM
  IC50: > 10 µM
Second compound 0.0316 µM
  IC50: > 10 µM
Second compound 0.1 µM
  IC50: > 10 µM
Second compound 0.316 µM
  IC50: > 10 µM
Second compound 1 µM
  IC50: 8.45 µM
[1]
  viability, T/C: 99.4%
[2]
  viability, T/C: 88.8%
[3]
  viability, T/C: 96.7%
[4]
  viability, T/C: 86.8%
[5]
  viability, T/C: 94.3%
[6]
  viability, T/C: 73.8%
[7]
  viability, T/C: 95.9%
[8]
  viability, T/C: 103%
[9]
  viability, T/C: 99.6%
[10]
  viability, T/C: 81.8%
[11]
  viability, T/C: 88.3%
[12]
  viability, T/C: 74.8%
[13]
  viability, T/C: 78.9%
[14]
  viability, T/C: 87.6%
[15]
  viability, T/C: 92.5%
[16]
  viability, T/C: 97.4%
[17]
  viability, T/C: 91.1%
[18]
  viability, T/C: 81.8%
[19]
  viability, T/C: 77.2%
[20]
  viability, T/C: 91.9%
[21]
  viability, T/C: 83.7%
[22]
  viability, T/C: 87.3%
[23]
  viability, T/C: 73.9%
[24]
  viability, T/C: 82.9%
[25]
  viability, T/C: 75.3%
[26]
  viability, T/C: 67.5%
[27]
  viability, T/C: 69.8%
[28]
  viability, T/C: 75.5%
[29]
  viability, T/C: 76.8%
[30]
  viability, T/C: 63.6%
[31]
  viability, T/C: 71.2%
[32]
  viability, T/C: 67.4%
[33]
  viability, T/C: 69.5%
[34]
  viability, T/C: 64.3%
[35]
  viability, T/C: 61.4%
[36]
  viability, T/C: 48%

## Cn1nccc1Nc1nccc(-c2ccn(C(CO)c3ccc(Cl)c(F)c3)c(=O)c2)n1 (stereo not drawn) + CC(Nc1ccc2c(c1)OCCn1cc(N3C(=O)OCC3C(F)F)nc1-2)C(N)=O
Second compound 0.00316 µM
  IC50: > 10 µM
Second compound 0.01 µM
  IC50: > 10 µM
Second compound 0.0316 µM
  IC50: > 10 µM
Second compound 0.1 µM
  IC50: > 10 µM
Second compound 0.316 µM
  IC50: > 10 µM
Second compound 1 µM
  IC50: > 10 µM
[1]
  viability, T/C: 91.2%
[2]
  viability, T/C: 86.8%
[3]
  viability, T/C: 112%
[4]
  viability, T/C: 92.6%
[5]
  viability, T/C: 93.5%
[6]
  viability, T/C: 88.1%
[7]
  viability, T/C: 105%
[8]
  viability, T/C: 92.5%
[9]
  viability, T/C: 101%
[10]
  viability, T/C: 95.1%
[11]
  viability, T/C: 101%
[12]
  viability, T/C: 88.5%
[13]
  viability, T/C: 103%
[14]
  viability, T/C: 92.4%
[15]
  viability, T/C: 88.7%
[16]
  viability, T/C: 88.6%
[17]
  viability, T/C: 127%
[18]
  viability, T/C: 98.2%
[19]
  viability, T/C: 74.2%
[20]
  viability, T/C: 100%
[21]
  viability, T/C: 94.6%
[22]
  viability, T/C: 88.7%
[23]
  viability, T/C: 100%
[24]
  viability, T/C: 98.4%
[25]
  viability, T/C: 59.9%
[26]
  viability, T/C: 73.3%
[27]
  viability, T/C: 75.2%
[28]
  viability, T/C: 72%
[29]
  viability, T/C: 71.5%
[30]
  viability, T/C: 71.8%
[31]
  viability, T/C: 58.8%
[32]
  viability, T/C: 50.1%
[33]
  viability, T/C: 55.4%
[34]
  viability, T/C: 62.4%
[35]
  viability, T/C: 61.4%
[36]
  viability, T/C: 41.4%
